The first experiment concerns the target TARP γ8 dependent AMPA receptor (GluA1o-g8 fusion channel) (Homo sapiens (Human), UniProt P42261+Q8WXS5). The experiment is described as follows: Calcium flux assay (FLIPR), HEK293 cells expressing GRIA1o-CACNG8 fusion. It counts as cell-based. Particulars: inhibition of calcium flux after 15 μM glutamate. The procedure, abridged:
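Stable HEK293 clone expressing GluA1o-γ8 fusion (1:1 stoichiometry), loaded with Calcium-5/6 dye plus test compound; glutamate-evoked fluorescence normalized to control wells. Concentration-response fitted to four-parameter logistic, midpoint taken as inhibitory potency.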
TARP γ8 dependent AMPA receptor (GluA1o-g8 fusion channel), sequence (P42261 other isoform, or with tags, fused parts or gaps): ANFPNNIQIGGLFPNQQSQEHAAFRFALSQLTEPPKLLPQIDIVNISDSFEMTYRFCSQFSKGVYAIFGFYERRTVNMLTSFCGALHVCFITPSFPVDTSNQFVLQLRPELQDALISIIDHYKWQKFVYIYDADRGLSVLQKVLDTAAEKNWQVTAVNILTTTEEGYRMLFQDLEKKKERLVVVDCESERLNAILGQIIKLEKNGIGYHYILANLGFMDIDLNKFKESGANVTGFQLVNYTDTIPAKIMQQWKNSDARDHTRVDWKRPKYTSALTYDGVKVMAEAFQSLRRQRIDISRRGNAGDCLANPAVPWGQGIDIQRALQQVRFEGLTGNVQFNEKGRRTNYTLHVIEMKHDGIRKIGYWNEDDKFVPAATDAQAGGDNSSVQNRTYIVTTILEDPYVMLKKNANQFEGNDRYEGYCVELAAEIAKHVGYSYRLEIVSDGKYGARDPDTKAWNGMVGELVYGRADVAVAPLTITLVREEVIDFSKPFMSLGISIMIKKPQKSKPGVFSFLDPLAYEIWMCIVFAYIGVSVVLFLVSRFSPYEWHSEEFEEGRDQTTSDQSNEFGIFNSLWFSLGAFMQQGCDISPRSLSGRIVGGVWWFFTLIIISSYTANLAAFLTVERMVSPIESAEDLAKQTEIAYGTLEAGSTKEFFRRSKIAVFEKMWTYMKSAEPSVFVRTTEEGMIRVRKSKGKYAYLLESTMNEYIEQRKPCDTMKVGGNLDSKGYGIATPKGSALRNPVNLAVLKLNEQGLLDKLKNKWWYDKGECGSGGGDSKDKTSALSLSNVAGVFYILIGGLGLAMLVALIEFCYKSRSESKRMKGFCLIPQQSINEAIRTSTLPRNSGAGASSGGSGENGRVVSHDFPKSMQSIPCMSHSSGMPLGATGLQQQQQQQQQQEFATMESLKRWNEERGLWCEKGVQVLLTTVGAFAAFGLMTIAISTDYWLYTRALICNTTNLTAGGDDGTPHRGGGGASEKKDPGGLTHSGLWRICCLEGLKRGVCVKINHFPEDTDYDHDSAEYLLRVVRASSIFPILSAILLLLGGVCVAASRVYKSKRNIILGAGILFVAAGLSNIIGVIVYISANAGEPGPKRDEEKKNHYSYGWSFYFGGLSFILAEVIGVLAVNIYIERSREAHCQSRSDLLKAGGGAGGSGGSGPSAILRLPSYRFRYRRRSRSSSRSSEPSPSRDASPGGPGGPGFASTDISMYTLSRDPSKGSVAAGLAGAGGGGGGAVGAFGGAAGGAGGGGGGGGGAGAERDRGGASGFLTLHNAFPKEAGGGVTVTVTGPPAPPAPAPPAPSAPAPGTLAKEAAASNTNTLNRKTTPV
Take `O=c1[nH]c2ccc(-c3c(Cl)cccc3OC(F)(F)F)cc2s1` [Example 76, 6-[2-Chloro-6-(trifluoromethoxy)phenyl]-3H-1,3-benzothiazol-2-one]: the “GluR1-γ8 pIC50” value was determined as 8.6.

Staying with this experiment, now noted: inhibition of calcium flux after 15 μM glutamate, read-out: GluR1-γ8 pIC50 (converted).
Turning to `COc1cccc(OC(C)C(F)(F)F)c1-c1ccc2[nH]c(=O)[nH]c2c1` (racemic) [Example 121, (±)-5-[2-Methoxy-6-(2,2,2-trifluoro-1-methyl-ethoxy)phenyl]-1,3-dihydrobenzimidazol-2-one], the IC50 was 158 nM.
Take `O=c1[nH]c2ccc(-c3c(Cl)cccc3C(F)(F)F)cc2[nH]1` [Example 12, 5-[2-Chloro-6-(trifluoromethyl)phenyl]-1,3-dihydrobenzimidazol-2-one]: the IC50 is 631 nM.
Same read-out and setting: then `CC(C)n1nccc1-c1cccc(Cl)c1-c1ccc2[nH]c(=O)[nH]c2c1` [Example 175, 5-[2-Chloro-6-(2-isopropylpyrazol-3-yl)phenyl]-1,3-dihydrobenzimidazol-2-one], with 1260 nM; and `O=c1[nH]c2ccc(-c3ccccc3Cl)cc2[nH]1` [Example 17, 5-(2-Chlorophenyl)-1,3-dihydrobenzimidazol-2-one], with 631 nM; and `Cc1c(-c2ccc3[nH]c(=O)[nH]c3c2)cccc1-c1nc(C(F)(F)F)no1` [Example 205, 5-[2-Methyl-3-[3-(trifluoromethyl)-1,2,4-oxadiazol-5-yl]phenyl]-1,3-dihydrobenzimidazol-2-one], with 39.8 nM.
The same measure, in the same setting: then `O=c1[nH]c2ccc(-c3c(Cl)cccc3Oc3cncs3)cc2[nH]1` [Example 101, 5-(2-Chloro-6-thiazol-5-yloxy-phenyl)-1,3-dihydrobenzimidazol-2-one], with 316 nM.
Still for that read-out and setting: then `Cc1noc(-c2cccc(-c3ccc4[nH]c(=O)sc4c3)c2C)n1` [Example 204, 6-[2-Methyl-3-(3-methyl-1,2,4-oxadiazol-5-yl)phenyl]-3H-1,3-benzothiazol-2-one], with 2510 nM; and `O=c1[nH]c2ccc(-c3c(Cl)cccc3OCc3ccccc3)cc2[nH]1` [Example 99, 5-(2-Benzyloxy-6-chloro-phenyl)-1,3-dihydrobenzimidazol-2-one], with 63.1 nM; and `N#CCc1cccc(-c2ccc3[nH]c(=O)[nH]c3c2)c1Cl` [Example 130, 2-[2-Chloro-3-(2-oxo-1,3-dihydrobenzimidazol-5-yl)phenyl]acetonitrile], with 2000 nM.
As for `N#CCc1ccccc1-c1ccc2[nH]c(=O)[nH]c2c1` [Example 41, 2-[2-(2-Oxo-1,3-dihydrobenzimidazol-5-yl)phenyl]acetonitrile], the IC50 is 501 nM.
Still for that read-out and setting: next, `COc1cccc(-c2cccc3cccnc23)c1-c1ccc2[nH]c(=O)[nH]c2c1` [Example 182, 5-[2-Methoxy-6-(8-quinolyl)phenyl]-1,3-dihydrobenzimidazol-2-one]: 1580 nM.
Same read-out and setting: next, `CC(C)Oc1ccc(Cl)cc1-c1ccc2[nH]c(=O)[nH]c2c1` [Example 16, 5-(5-Chloro-2-isopropoxy-phenyl)-1,3-dihydrobenzimidazol-2-one]: 316 nM; `CC(C)Oc1c(Cl)cccc1-c1ccc2[nH]c(=O)[nH]c2c1` [Example 115, 5-(3-Chloro-2-isopropoxy-phenyl)-1,3-dihydrobenzimidazol-2-one]: 2000 nM; `Cc1c(CN2CCOC(C)C2)cccc1-c1ccc2[nH]c(=O)[nH]c2c1` (racemic) [Example 150, (±)-5-[2-Methyl-3-[(2-methylmorpholin-4-yl)methyl]phenyl]-1,3-dihydrobenzimidazol-2-one]: 200 nM.
On to `Cc1c(-c2ccc3[nH]c(=O)[nH]c3c2)cccc1-c1nnc(C2CC2)o1` [Example 197, 5-[3-(5-Cyclopropyl-1,3,4-oxadiazol-2-yl)-2-methyl-phenyl]-1,3-dihydrobenzimidazol-2-one], for which the IC50 is 398 nM.
Same read-out and setting: then `COC(=O)c1ccc(C)c(-c2ccc3[nH]c(=O)[nH]c3c2)c1` [Example 47, Methyl 4-methyl-3-(2-oxo-1,3-dihydrobenzimidazol-5-yl)benzoate], with 501 nM; and `O=c1[nH]c2ccc(-c3c(Cl)cccc3NCc3ccoc3)cc2[nH]1` [Example 87, 5-[2-Chloro-6-(3-furylmethylamino)phenyl]-1,3-dihydrobenzimidazol-2-one], with 126 nM.
Regarding `CC(C)(C)OC(=O)N1CC(Oc2cccc(Cl)c2-c2ccc3[nH]c(=O)[nH]c3c2)C1` [Example 100, tert-Butyl 3-[3-chloro-2-(2-oxo-1,3-dihydrobenzimidazol-5-yl)phenoxy]azetidine-1-carboxylate], the IC50 was 316 nM.
The same measure, in the same setting: then `O=c1[nH]c2ccc(-c3c(Cl)cccc3-c3cncc(C(F)(F)F)c3)cc2[nH]1` [Example 169, 5-[2-Chloro-6-[5-(trifluoromethyl)-3-pyridyl]phenyl]-1,3-dihydrobenzimidazol-2-one], with 251 nM; and `Cc1nnc(-c2cccc(-c3ccc4[nH]c(=O)[nH]c4c3)c2C)o1` [Example 195, 5-[2-Methyl-3-(5-methyl-1,3,4-oxadiazol-2-yl)phenyl]-1,3-dihydrobenzimidazol-2-one], with 2510 nM; and `O=c1[nH]c2ccc(-c3ccccc3OCC3CC3)cc2[nH]1` [Example 13, 5-[2-(Cyclopropylmethoxy)phenyl]-1,3-dihydrobenzimidazol-2-one], with 398 nM.
Still for that read-out and setting: next, `CC(C)Oc1cccc(OC(C)C)c1-c1ccc2[nH]c(=O)[nH]c2c1` [Example 107, 5-(2,6-Diisopropoxyphenyl)-1,3-dihydrobenzimidazol-2-one]: 63.1 nM.
The same measure, in the same setting: next, `Cc1ccc(C#N)cc1-c1ccc2[nH]c(=O)[nH]c2c1` [Example 39, 4-Methyl-3-(2-oxo-1,3-dihydrobenzimidazol-5-yl)benzonitrile]: 1580 nM; `COC(=O)c1cccc(-c2ccc3[nH]c(=O)[nH]c3c2)c1C` [Example 46, Methyl 2-methyl-3-(2-oxo-1,3-dihydrobenzimidazol-5-yl)benzoate]: 50.1 nM.
With `O=c1[nH]c2ccc(-c3c(Cl)cccc3NCc3ccco3)cc2[nH]1` [Example 86, 5-[2-Chloro-6-(2-furylmethylamino)phenyl]-1,3-dihydrobenzimidazol-2-one], the IC50 is 158 nM.
Regarding `O=c1[nH]c2cc(-c3c(Cl)cccc3OC(F)(F)F)cc(F)c2[nH]1` [Example 214, 6-(2-chloro-6-(trifluoromethoxy)phenyl)-4-fluoro-1,3-dihydro-2H-benzo[d]imidazol-2-one], the IC50 is 2.51 nM.
For `O=c1[nH]c2ccc(-c3cccc(-c4nnc(C5CC5)o4)c3Cl)cc2[nH]1` [Example 196, 5-[2-Chloro-3-(5-cyclopropyl-1,3,4-oxadiazol-2-yl)phenyl]-1,3-dihydrobenzimidazol-2-one], the IC50 was 316 nM.
On the same count and under the same terms, next, `N#CCc1cccc(C2CC2)c1-c1ccc2[nH]c(=O)[nH]c2c1` [Example 138, 2-[3-Cyclopropyl-2-(2-oxo-1,3-dihydrobenzimidazol-5-yl)phenyl]acetonitrile]: 100 nM; `Cc1cccc(C(F)(F)F)c1-c1ccc2[nH]c(=O)[nH]c2c1` [Example 57, 5-[2-Methyl-6-(trifluoromethyl)phenyl]-1,3-dihydrobenzimidazol-2-one]: 631 nM.

Values taken from patent US10611730B2, “Benzimidazolone and benzothiazolone compounds and their use as AMPA receptor modulators” (Janssen Pharmaceutica NV, priority 2015, dated 2020).
